ChEMBL document CHEMBL5212743, “Selectivity Literature for EUbOPEN Chemogenomics Library wave 3” (2023)

What was measured:
[1] = system: Receptor-type tyrosine-protein kinase FLT3 (Homo sapiens), P36888 [UNDEFINED MUTATION]; assay: Selectivity interaction (KinomeScan (DiscoverX)) EUB0000702a FLT3; details: at 1 µM
[2] = target: T1, Dual specificity mitogen-activated protein kinase kinase 5 (Homo sapiens, UniProt Q13163); assay: Selectivity interaction (NanoBRET assay (HEK293T cells)) EUB0000305b MAP2K5
T1 sequence (Q13163 whole entry): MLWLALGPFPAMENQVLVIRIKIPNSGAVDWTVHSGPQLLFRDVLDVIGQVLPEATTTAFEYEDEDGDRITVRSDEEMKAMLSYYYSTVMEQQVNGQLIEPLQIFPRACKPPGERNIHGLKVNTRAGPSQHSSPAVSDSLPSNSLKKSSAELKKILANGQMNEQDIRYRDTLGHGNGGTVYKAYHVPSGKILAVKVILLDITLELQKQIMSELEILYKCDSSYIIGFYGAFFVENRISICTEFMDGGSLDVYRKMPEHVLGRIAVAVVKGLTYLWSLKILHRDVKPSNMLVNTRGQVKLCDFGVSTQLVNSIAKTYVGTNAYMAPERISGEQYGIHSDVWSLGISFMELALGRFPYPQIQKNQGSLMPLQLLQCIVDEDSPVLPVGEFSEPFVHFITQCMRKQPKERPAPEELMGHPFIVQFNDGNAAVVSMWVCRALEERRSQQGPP

[3] = target: T2, Serine/threonine-protein kinase TAO3 (Homo sapiens) (UniProt Q9H2K8); assay: Selectivity interaction (KinomeScan (DiscoverX)) EUB0000305b TAOK3; details: CellTiter-Glo assay (Promega, proliferation in ACHN cells): IC50 = […] nM, https://www.sgc-ffm.uni-frankfurt.de/#!specificprobeove, at 100 nM
T2 sequence (whole entry): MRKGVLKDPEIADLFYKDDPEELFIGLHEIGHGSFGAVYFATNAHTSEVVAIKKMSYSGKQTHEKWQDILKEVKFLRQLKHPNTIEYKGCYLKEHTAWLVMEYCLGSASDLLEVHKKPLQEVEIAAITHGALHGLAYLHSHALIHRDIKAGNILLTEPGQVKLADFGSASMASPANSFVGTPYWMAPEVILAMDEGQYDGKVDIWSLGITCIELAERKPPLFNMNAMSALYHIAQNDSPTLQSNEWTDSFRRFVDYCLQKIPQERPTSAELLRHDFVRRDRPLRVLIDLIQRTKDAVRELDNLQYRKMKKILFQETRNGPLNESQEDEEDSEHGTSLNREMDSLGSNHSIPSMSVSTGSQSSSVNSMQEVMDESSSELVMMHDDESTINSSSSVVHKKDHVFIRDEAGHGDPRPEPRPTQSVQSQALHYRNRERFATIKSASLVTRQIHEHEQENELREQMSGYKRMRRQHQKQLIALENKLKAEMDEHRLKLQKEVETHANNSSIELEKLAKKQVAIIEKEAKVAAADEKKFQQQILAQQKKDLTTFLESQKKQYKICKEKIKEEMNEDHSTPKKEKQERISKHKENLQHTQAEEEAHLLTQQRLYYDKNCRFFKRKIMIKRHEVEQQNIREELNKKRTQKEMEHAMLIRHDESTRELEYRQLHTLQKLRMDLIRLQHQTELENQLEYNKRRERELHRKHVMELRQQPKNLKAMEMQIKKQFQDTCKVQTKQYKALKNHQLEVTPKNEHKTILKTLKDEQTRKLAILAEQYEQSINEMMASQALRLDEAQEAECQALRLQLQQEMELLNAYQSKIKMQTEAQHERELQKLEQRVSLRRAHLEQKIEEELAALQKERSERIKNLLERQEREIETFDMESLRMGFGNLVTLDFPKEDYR

[4] = target: Hepatocyte growth factor receptor (Homo sapiens) (UniProt P08581); details: at 1 µM
[5] = target: Receptor-type tyrosine-protein kinase FLT3 (Homo sapiens) (UniProt P36888); details: at 1 µM
[6] = target: Serine/threonine-protein kinase PLK3 (Homo sapiens, UniProt Q9H4B4); assay: Selectivity interaction (KinomeScan (DiscoverX)) EUB0000169b PLK3; details: at 1 µM
[7] = target: Ribosomal protein S6 kinase beta-1 (Homo sapiens) (UniProt P23443); details: at 10 µM
[8] = target: Phosphorylase b kinase regulatory subunit alpha, liver isoform (Homo sapiens) (UniProt P46019); assay: Selectivity interaction (Kinase panel (University of Dundee)) EUB0000169b PHKA2; details: at 10 µM
[9] = target: T3, Serine/threonine-protein kinase Sgk1 (Homo sapiens) (UniProt O00141); assay: Selectivity interaction (Kinase panel (University of Dundee)) EUB0000169b SGK1; details: at 10 µM
T3 sequence (whole entry): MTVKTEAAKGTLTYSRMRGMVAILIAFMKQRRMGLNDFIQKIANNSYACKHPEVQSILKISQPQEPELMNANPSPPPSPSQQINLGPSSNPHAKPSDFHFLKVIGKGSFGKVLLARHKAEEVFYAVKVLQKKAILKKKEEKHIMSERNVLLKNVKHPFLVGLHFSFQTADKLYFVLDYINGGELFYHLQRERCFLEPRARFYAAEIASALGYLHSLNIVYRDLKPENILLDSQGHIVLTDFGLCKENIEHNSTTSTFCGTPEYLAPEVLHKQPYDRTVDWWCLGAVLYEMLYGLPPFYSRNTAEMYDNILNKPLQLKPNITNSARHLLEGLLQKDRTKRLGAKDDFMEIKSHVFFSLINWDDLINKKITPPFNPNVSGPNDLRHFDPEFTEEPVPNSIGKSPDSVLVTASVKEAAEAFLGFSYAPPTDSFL

[10] = target: Serine/threonine-protein kinase 10 (Homo sapiens) (UniProt O94804); assay: Selectivity interaction (KinomeScan (DiscoverX)) EUB0000698a STK10; details: at 10 µM
[11] = target: T4, Dual specificity mitogen-activated protein kinase kinase 5 (Homo sapiens) (UniProt Q13163); assay: Selectivity interaction (KinomeScan (DiscoverX)) EUB0000698a MAP2K5; details: at 10 µM
T4 sequence (whole entry): T1 sequence (Q13163 whole entry)

[12] = target: Tyrosine-protein kinase ABL1 (Homo sapiens, UniProt P00519, T315I); assay: Selectivity interaction (KinomeScan (DiscoverX, competition-binding assay)) EUB0000178b ABL1
[13] = target: Phosphatidylinositol 4,5-bisphosphate 3-kinase catalytic subunit gamma isoform (Homo sapiens, UniProt P48736); assay: Selectivity interaction (KinomeScan (DiscoverX)) EUB0000178b PIK3CG; details: at 1 µM
[14] = target: Serine/threonine-protein kinase 16 (Homo sapiens, UniProt O75716); assay: Selectivity interaction (KinomeScan (DiscoverX)) EUB0000138c STK16; details: at 100 nM
D(1A) dopamine receptor = D(1A) dopamine receptor (Homo sapiens, UniProt P21728); assay: Selectivity interaction (GPCR panel (PDSP screen)) EUB0000138c DRD1
Sequence of D(1A) dopamine receptor (P21728 whole entry): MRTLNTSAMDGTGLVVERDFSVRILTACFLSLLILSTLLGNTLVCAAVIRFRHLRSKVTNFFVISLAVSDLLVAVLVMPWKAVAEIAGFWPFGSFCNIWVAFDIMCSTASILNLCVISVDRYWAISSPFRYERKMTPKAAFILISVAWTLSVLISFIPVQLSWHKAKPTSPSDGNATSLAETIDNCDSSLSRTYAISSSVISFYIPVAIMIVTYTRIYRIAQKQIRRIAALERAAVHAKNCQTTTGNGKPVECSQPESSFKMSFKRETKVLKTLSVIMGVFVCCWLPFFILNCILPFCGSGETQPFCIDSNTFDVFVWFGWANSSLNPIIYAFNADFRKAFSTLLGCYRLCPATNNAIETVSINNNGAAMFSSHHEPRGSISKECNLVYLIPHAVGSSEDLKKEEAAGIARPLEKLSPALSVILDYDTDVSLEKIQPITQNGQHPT

Sequence of Hepatocyte growth factor receptor (Homo sapiens) (P08581 whole entry): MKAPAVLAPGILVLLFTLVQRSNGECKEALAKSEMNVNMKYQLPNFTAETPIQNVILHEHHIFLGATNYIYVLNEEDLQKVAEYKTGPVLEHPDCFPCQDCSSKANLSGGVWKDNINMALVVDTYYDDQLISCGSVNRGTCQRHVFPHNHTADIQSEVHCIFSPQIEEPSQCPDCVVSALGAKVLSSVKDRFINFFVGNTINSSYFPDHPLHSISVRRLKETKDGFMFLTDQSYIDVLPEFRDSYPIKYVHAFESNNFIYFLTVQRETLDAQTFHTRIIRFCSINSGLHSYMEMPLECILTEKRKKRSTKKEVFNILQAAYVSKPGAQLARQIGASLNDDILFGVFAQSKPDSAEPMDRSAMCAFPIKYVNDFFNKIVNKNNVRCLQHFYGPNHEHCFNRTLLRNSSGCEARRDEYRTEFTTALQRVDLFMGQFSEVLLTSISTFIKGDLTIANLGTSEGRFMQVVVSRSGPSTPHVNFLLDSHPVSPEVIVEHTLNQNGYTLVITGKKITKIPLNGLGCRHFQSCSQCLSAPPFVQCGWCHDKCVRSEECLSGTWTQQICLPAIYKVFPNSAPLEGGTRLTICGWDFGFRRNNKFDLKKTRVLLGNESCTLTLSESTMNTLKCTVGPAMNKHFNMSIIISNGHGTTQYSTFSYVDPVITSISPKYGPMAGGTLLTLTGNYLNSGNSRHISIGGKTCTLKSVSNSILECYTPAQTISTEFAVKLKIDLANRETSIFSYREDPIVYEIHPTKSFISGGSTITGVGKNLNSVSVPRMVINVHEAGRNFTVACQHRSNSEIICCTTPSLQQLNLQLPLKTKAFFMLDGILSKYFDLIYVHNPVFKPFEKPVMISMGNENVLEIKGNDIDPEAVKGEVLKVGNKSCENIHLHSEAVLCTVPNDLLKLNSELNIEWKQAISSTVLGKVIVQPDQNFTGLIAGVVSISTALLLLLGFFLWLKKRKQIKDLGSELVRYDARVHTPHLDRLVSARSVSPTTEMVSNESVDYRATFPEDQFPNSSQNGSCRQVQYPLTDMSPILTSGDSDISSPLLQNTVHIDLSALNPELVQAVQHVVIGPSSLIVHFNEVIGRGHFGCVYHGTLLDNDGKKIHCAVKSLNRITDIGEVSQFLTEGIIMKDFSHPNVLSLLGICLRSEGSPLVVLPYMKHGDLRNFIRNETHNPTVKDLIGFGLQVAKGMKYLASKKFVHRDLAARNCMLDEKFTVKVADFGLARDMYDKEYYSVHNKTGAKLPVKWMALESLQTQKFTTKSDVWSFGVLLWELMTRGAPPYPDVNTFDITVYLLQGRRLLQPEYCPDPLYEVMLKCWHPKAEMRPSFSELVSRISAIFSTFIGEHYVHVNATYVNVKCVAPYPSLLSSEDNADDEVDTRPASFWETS
Sequence of Serine/threonine-protein kinase 16 (O75716 whole entry): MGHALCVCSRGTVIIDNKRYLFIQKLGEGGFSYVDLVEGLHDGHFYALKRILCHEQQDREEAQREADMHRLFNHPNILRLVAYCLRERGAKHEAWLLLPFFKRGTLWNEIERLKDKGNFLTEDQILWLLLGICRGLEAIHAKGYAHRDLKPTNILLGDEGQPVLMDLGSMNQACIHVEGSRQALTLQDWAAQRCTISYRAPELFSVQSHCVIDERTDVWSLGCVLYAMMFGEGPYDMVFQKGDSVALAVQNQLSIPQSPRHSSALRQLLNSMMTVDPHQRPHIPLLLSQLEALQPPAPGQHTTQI
Sequence of Receptor-type tyrosine-protein kinase FLT3 (Homo sapiens) (P36888 whole entry): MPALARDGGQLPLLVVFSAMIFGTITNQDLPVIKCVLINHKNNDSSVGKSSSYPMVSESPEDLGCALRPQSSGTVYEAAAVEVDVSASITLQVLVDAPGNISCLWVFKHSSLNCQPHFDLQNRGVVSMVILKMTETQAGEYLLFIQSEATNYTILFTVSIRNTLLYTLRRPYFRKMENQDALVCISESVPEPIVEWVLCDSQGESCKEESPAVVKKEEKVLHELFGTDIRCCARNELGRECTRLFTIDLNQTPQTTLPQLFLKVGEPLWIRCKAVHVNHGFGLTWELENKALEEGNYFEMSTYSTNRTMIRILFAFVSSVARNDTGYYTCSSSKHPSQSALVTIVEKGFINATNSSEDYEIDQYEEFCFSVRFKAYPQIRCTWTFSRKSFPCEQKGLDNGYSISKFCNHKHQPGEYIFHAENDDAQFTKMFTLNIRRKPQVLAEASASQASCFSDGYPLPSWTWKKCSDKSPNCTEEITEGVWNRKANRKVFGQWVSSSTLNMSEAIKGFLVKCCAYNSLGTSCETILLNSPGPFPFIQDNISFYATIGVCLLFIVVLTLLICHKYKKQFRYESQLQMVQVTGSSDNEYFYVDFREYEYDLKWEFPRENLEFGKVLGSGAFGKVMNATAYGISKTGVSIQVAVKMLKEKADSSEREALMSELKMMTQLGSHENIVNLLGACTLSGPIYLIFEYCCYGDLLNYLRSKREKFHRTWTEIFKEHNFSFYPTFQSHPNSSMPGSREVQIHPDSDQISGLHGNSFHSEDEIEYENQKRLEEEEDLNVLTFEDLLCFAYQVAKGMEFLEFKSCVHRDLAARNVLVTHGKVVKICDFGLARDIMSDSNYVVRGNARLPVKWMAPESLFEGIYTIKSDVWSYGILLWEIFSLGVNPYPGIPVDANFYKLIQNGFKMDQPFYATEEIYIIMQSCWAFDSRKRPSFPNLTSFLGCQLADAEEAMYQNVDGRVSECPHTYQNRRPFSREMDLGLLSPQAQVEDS
Sequence of Receptor-type tyrosine-protein kinase FLT3 (Homo sapiens), P36888 [UNDEFINED MUTATION] (P36888 whole entry, looked up, change not shown): as the sequence (P36888 whole entry) above
Sequence of Phosphorylase b kinase regulatory subunit alpha, liver isoform (Homo sapiens) (P46019 whole entry, canonical isoform): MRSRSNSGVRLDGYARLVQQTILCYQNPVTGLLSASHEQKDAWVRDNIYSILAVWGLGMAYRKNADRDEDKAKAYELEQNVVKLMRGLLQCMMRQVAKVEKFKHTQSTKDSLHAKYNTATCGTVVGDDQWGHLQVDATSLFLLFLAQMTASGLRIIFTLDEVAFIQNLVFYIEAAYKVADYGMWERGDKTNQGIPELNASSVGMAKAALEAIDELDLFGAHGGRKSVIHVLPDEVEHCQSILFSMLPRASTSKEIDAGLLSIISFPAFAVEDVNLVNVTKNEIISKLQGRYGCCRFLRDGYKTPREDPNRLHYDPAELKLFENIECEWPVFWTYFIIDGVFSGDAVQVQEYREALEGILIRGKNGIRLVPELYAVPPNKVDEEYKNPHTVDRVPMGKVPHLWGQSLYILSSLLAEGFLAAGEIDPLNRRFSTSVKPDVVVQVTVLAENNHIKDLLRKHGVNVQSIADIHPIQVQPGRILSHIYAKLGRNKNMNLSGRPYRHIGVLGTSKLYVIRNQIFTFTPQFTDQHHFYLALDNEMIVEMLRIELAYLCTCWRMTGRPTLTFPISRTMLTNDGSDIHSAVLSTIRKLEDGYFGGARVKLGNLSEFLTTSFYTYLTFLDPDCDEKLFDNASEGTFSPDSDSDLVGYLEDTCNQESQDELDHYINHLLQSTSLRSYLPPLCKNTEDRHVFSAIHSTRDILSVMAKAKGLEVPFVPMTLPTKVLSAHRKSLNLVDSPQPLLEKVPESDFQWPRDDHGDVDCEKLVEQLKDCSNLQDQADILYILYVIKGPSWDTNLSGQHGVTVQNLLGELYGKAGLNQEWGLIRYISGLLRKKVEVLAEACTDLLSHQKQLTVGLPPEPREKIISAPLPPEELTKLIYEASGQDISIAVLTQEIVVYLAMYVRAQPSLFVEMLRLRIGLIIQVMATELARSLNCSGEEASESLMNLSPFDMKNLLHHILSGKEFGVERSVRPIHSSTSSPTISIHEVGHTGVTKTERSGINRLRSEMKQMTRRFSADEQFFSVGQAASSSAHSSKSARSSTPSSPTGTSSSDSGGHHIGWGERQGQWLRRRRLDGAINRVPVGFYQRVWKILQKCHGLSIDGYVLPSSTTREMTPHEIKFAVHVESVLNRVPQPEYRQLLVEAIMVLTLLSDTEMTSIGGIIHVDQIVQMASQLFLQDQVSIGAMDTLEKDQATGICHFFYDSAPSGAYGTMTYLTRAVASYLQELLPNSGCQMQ
Sequence of Ribosomal protein S6 kinase beta-1 (Homo sapiens) (P23443 whole entry, looked up, canonical isoform): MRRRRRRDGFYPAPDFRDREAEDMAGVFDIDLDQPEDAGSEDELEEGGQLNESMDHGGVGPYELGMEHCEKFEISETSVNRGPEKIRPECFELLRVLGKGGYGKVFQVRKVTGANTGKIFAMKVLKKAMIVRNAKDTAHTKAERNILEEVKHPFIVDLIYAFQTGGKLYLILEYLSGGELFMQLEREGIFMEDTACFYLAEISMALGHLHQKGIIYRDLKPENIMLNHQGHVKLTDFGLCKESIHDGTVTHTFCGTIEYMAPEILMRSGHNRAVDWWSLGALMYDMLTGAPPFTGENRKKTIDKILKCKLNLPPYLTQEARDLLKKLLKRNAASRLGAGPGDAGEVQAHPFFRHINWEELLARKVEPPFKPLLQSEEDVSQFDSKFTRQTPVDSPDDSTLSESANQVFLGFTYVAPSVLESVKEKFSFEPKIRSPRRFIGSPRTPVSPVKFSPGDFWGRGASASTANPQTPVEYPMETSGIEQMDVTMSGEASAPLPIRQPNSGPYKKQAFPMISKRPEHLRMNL

Compound: CN(c1ccnc(CNc2nc(Nc3ccc4c(c3)CC(=O)N4)ncc2C(F)(F)F)n1)S(C)(=O)=O [PF-00911705]
- % of control [1]: 0%

Compound: C[C@H](c1ccnc(Nc2nc3ccc(-c4cc(N(C)C)ncn4)cc3[nH]2)c1)N1CCN(C(=O)CC(F)(F)F)CC1 [BAY-985]
- IC50 [2]: > 20 µM
- % of control [3]: 41%

Compound: CCOc1cn(-c2ccc(F)cc2C)nc1C(=O)Nc1ccc(Oc2ccnc3cc(OC)c(OC)cc23)c(F)c1
- % of control [4]: < 10%
- % of control [5]: < 10%

Compound: CC[C@@H]1C(=O)N(C)c2cnc(Nc3ccc(C(=O)NC4CCN(C)CC4)cc3OC)nc2N1C1CCCC1
- % of control [6]: 0.5%
- % of control [7]: 102%
- % of control [8]: 60%
- % of control [9]: 80%

Compound: COc1cc2ncn(-c3cc(OCc4ccccc4C(F)(F)F)c(C(N)=O)s3)c2cc1OC [GW843682X]
- % of control [10]: 0%
- % of control [11]: 0.5%

Compound: CN1C(=O)c2sccc2N(C)c2nc(Nc3ccc(S(N)(=O)=O)cc3)ncc21
- Kd [12]: 0.014 µM
- % of control [13]: 0.15%

Compound: CNC(=O)c1ccc(Nc2ncc(C(F)(F)F)c(NCc3nccnc3N(C)S(C)(=O)=O)n2)cc1 [DEFACTINIB]
- % of control [14]: 7.7%
- Ki (D(1A) dopamine receptor): > 10 µM
